Here are results for three compounds from patent US9637470B2, “Treatment for substance use disorders and stress disorders” (Baylor College of Medicine, priority 2013, dated 2017).

The target in series [1] is T1, human serotonin transporter (Homo sapiens, UniProt P31645).
T1 construct: expressed in transfected cells; host or cells: HEK-293
As to conditions: at 100 nM; cited from earlier work.

Series [2] has as its target T2, human recombinant norepinephrine transporter (Homo sapiens, UniProt P23975).
T2 construct: expressed in transfected cells; host or cells: MDCK
As to conditions: at 100 nM; cited from earlier work.

Series [3] has as its target T3, human recombinant dopamine transporter (Homo sapiens, UniProt Q01959).
T3 construct: expressed in transfected cells; host or cells: CHO-K1
As to conditions: at 100 nM; cited from earlier work.

The target of series [4] is T1, human serotonin transporter. Nature of the series: Serotonin transporter reuptake inhibition assay (prior art). The class given is cell-based. To be noted: at 100 nM; across serotonin, norepinephrine, and dopamine transporters. The protocol:
Serotonin transporter reuptake inhibition was assayed using the method described by Gu H. et al., J Biol Chem., 1994, 269, p […], the entire contents of which are incorporated herein by reference. Recombinant HEK-293 cells with human serotonin transporter were plated. Test compounds were pre-incubated with cells (2×10^5/ml) in modified Tris-HEPES buffer at pH 7.1 for 20 min at 25° C. and were incubated for an additional 10 min after addition of 65 nM of [3H]Serotonin. Bound cells were filtered and counted to determine [3H]Serotonin uptake. Reduction of [3H]Serotonin uptake by 50 percent or more (≧50%) relative to 10 μM fluoxetine indicated significant inhibitory activity.

Series [5] concerns humans. To be noted: cited from earlier work.

Molecules are shown by their SMILES.

T1 sequence (P31645 whole entry): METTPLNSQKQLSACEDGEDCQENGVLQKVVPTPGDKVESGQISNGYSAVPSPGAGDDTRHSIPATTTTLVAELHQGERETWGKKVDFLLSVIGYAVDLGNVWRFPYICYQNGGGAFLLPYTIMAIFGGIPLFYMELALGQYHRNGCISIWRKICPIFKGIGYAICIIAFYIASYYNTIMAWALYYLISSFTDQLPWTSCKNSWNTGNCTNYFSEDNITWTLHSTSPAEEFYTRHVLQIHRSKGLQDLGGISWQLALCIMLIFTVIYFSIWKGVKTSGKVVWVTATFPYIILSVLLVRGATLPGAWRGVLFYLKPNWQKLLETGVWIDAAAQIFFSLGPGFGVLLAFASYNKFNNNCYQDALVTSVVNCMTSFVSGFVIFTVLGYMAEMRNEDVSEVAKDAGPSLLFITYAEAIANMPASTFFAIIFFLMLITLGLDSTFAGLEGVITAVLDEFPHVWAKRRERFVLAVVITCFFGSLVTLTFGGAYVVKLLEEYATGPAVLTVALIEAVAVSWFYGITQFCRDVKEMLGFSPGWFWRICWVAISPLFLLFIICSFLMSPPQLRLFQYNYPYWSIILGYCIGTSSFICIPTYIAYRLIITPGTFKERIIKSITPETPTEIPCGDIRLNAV
T2 sequence (P23975 whole entry): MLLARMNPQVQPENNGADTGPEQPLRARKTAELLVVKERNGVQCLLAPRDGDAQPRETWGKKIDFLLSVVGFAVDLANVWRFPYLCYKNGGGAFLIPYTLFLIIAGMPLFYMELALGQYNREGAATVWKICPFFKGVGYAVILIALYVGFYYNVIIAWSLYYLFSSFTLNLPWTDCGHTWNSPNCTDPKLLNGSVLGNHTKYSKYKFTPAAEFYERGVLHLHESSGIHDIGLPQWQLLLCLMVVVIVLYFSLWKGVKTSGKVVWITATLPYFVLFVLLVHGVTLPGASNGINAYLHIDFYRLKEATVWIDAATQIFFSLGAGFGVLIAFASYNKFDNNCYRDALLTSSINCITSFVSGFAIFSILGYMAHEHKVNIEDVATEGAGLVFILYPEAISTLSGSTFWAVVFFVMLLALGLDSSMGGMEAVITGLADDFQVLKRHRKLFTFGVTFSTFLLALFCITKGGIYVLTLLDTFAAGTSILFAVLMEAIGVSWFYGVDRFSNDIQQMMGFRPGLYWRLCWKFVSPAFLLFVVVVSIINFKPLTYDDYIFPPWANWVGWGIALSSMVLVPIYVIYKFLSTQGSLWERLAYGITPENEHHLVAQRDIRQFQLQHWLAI
T3 sequence (Q01959 whole entry): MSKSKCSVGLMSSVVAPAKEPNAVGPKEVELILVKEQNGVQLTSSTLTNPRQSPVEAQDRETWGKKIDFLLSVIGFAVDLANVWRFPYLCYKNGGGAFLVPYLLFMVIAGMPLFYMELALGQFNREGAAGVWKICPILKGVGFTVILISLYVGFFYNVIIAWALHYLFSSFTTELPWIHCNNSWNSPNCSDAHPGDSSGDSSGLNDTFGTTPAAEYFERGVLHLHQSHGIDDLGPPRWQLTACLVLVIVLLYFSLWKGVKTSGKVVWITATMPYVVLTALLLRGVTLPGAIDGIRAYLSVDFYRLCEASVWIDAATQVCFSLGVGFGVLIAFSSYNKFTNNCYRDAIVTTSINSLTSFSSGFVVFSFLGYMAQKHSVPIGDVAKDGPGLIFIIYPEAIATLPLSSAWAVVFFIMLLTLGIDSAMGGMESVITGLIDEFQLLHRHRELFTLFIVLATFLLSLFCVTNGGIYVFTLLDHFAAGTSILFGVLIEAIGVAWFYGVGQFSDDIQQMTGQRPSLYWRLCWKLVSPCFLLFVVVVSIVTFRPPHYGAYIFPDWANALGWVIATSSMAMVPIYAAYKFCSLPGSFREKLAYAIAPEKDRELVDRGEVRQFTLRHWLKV

For the compound `c1ccc2cc([C@H]([C@H]3CCCNC3)n3nccn3)ccc2c1` [Example Compound 14, (3S)-3-[(S)-naphthalen-2-yl(2H-1,2,3-triazol-2-yl)methyl]piperidine], the “reuptake inhibition percentage, serotonin transporter” value in series [1] is recorded as 76%. Besides, the “reuptake inhibition percentage, norepinephrine transporter” value in series [2] is reported as 70%. In series [3], the “reuptake inhibition percentage, dopamine transporter” value was 52%. Besides, the “subtractive difference of reuptake inhibition percentages, at most” value in series [4] is listed as 24%.
Regarding `Clc1ccc([C@]23CNCC2C3)cc1Cl` (stereo partly drawn) [amitifadine], the “positive subjective effects in humans (comparators)” value in series [5] is “does not produce positive subjective effects”.
For the compound `CCOC[C@@H]1[C@@H](c2ccc(Cl)c(Cl)c2)C[C@@H]2CC[C@H]1N2C` [tesofensine], the “positive subjective effects in humans (comparators)” value in series [5] is reported as “does not produce positive subjective effects”.
